Values after ≈ are worked out from the molar mass of the structure shown. Where two headings read alike, the source gives them in different places.
How the values were obtained:
[1] = tested on: Aspergillus fumigatus IAM 2612; assay: Minimal inhibitory concentration (agar); assay type: cell-based; conditions: IAM2612, 96 h, potato agar, pH 6.4, 4 days, 27° C.
Procedure: P potato agar (pH 6.4, 4 days, 27° C.)
(§1) MIC Minimal inhibitory concentration

Mycoplasma gallinarum = assay: Minimal inhibitory concentration (PPLO agar); assay type: cell-based; conditions: Mycoplasmopsis gallinarum, 192 h, Hokken PPLO agar, pH 7.8, 8 days, 37° C.
Procedure: (§2) H Hokken PPLO agar (pH 7.8, 8 days, 37° C.)
as §1
(§3) E Eiken PPLO agar (pH 7.8, 8 days, 37° C.)

Mycoplasma iners = assay: Minimal inhibitory concentration (PPLO agar); assay type: cell-based; conditions: Mycoplasmopsis iners, 192 h; Hokken PPLO agar, pH 7.8, 8 days, 37° C.
Procedure: as §2, §1, §3

Aspergillus fumigatus = assay: Minimal inhibitory concentration (agar dilution method); assay type: cell-based; conditions: Aspergillus fumigatus, 96 h; potato agar, pH 6.4, 27° C., 4 days; read-out: Minimal Inhibitory Con.
Procedure: (§4) Minimal inhibitory concentration was assayed by agar dilution method
(§5) (potato agar, pH 6.4, 27° C., 4 days).

Microsporum gypseum = assay: as above; assay type: cell-based; conditions: Nannizzia gypsea, 96 h; potato agar, pH 6.4, 27° C., 4 days; read-out: Minimal Inhibitory Con.
Procedure: as §4, §5

Pseudomonas aeruginosa = assay: Minimal inhibitory concentration (agar); assay type: cell-based; conditions: 48 h, nutrient agar, pH 7.0, 2 days, 37° C.
Procedure: (§6) Medium N nutrient agar (pH 7.0, 2 days, 37° C.)
as §1
(§7) N nutrient agar (pH 7.0, 2 days, 37° C.)

Shigella flexneri = assay: Minimal inhibitory concentration (agar); assay type: cell-based; conditions: 48 h, nutrient agar, pH 7.0, 2 days, 37° C.
Procedure: as §6, §1, §7

[2] = tested on: Acholeplasma laidlawii (A) PG8; assay: Minimal inhibitory concentration (PPLO agar); assay type: cell-based; conditions: pH 7.8, 8 days, 37° C.
Procedure: as §2, §3, §1

[3] = tested on: Mycoplasma gallisepticum S-6; assay: Minimal inhibitory concentration (PPLO agar); assay type: cell-based; conditions: Mycoplasmoides gallisepticum, S6, 192 h, pH 7.8, 8 days, 37° C.
Procedure: as §2, §3, §1

[4] = tested on: Acholeplasma laidlawii (B) Bml; assay: Minimal inhibitory concentration (PPLO agar); assay type: cell-based; conditions: 192 h, pH 7.8, 8 days, 37° C.
Procedure: as §2, §3, §1

[5] = tested on: Mycoplasma gallisepticum KP-13; assay: Minimal inhibitory concentration (PPLO agar); assay type: cell-based; conditions: Mycoplasmoides gallisepticum, KP13, 192 h, pH 7.8, 8 days, 37° C.
Procedure: as §2, §3, §1

[6] = tested on: Mycoplasma gallisepticum 333P (Spiramycin resistant); assay: Minimal inhibitory concentration (PPLO agar); assay type: cell-based
Procedure: as §2, §3, §1

Acute toxicity in mice = conditions: intra-penetrial injection
[7] = tested on: parasite of the genus Tricophyton; assay: Therapeutic effect on infectious diseases in guinea pigs and cattle; assay type: in vivo; conditions: concentration 0.01-1%
Procedure: When dermatomycosis of cattle caused by mass infection of Trichophyton verrucosum is treated with nanaomycin A, nanaomycin A is dissolved or suspended in a suitable carrier, for example, olive oil, and is coated on the affected part directly with or without removal of the scales. […] The results obtained by once-coating of nanaomycin A and by twice-coating (the second coating is carried out a week after the first coating) are shown in Tables 2 and 3, respectively.

Piricularia oryzae = assay: microbe, parasite or virus in culture; assay type: cell-based; conditions: 96 h, pH 6.4, potato agar, pH 6.4, 4 days, 27° C.
[8] = tested on: Escherichia coli NIHJ (JC-2); assay: Minimal inhibitory concentration (agar); assay type: cell-based; conditions: 48 h, pH 7, nutrient agar, pH 7.0, 2 days, 37° C.
Procedure: as §6, §1, §7

fungi = assay: Antifungal activity (in words); assay type: cell-based

CC1OC(CC(=O)O)CC2=C1C(=O)c1c(O)cccc1C2=O (centres unmarked) [Nanaomycin A, nanaomycin A]
MIC [1]: 12.5 µg/mL (≈ 41.4 µM)
MIC (Mycoplasma gallinarum): 1.56 µg/mL (≈ 5.16 µM)
MIC (Mycoplasma iners): 3.12 µg/mL (≈ 10.3 µM)
MIC (Aspergillus fumigatus): 6.3 µg/mL (≈ 20.8 µM)
MIC (Microsporum gypseum): 0.8 µg/mL (≈ 2.65 µM)
MIC (Pseudomonas aeruginosa): 500 µg/mL (≈ 1650 µM)
MIC (Shigella flexneri): 31.3 µg/mL (≈ 104 µM)
MIC ([2]; Acholeplasma laidlawii, 192 h, Hokken PPLO agar, read-out: MIC): > 25 µg/mL
MIC ([2]; Eiken PPLO agar): > 25 µg/mL
MIC ([3]; pH 7.8, Hokken PPLO agar): < 0.013 µg/mL
MIC ([3]; Eiken PPLO agar, read-out: MIC): 0.1 µg/mL (≈ 0.331 µM)
MIC ([4]; pH 7.8, Eiken PPLO agar): > 25 µg/mL
MIC ([4]; pH 7.8, Hokken PPLO agar): 25 µg/mL (≈ 82.7 µM)
MIC ([5]; pH 7.8, Eiken PPLO agar): 0.05 µg/mL (≈ 0.165 µM)
MIC ([5]; pH 7.8, Hokken PPLO agar): < 0.013 µg/mL
MIC ([6]; Eiken PPLO agar, pH 7.8, 8 days, 37° C.): < 0.013 µg/mL
MIC ([6]; Mycoplasmoides gallisepticum, 192 h, pH 7.8): < 0.013 µg/mL
activity against spiramycin-resistant Mycoplasma gallisepticum ([6]; in words): strong activity

CC(=O)Oc1cccc2c1C(=O)C1=C(CC(CC(=O)O)OC1C)C2=O (centres unmarked) [Acetylnanaomycin A, acetylnanaomycin A]
acute toxicity compared with nanaomycin A (Acute toxicity in mice): lower than that of nanaomycin A
therapeutic effect on Trichophyton infectious diseases [7]: superior therapeutic effect to nanaomycin A
MIC (Piricularia oryzae): 0.8 µg/mL (≈ 2.32 µM)
MIC [8]: > 100 µg/mL
activity against fungi (fungi): as strong activity against fungi and mycoplasmas as nanaomycin A

— patent US4324728A, “Compound nanaomycin A and derivatives thereof and a process for producing the same” (The Kitasato Institute, priority 1976, dated 1982)
